Laboratory results as given in patent US11365188B2, “JAK inhibitors” (priority 2018, dated 2022).

Molecular target: JAK1 (Homo sapiens, UniProt P23458)
Assay: JAK Kinase Assay (JAK1, Caliper EZ Reader, fluoresceinated peptide)
Type: biochemical
Details: ATP 76.5 μM; JAK1 10 nM; 120 minutes at room temperature; read-out: JAK1 inhibition
Description: JAK Kinase Assay 384-well plates in the left foot butoxy measured progress. The final assay volume was 25 μL, 250 nL 100× compounds, 10 μL enzyme mix and 15 μL substrate mix (fluoresceinated peptide and ATP) in assay buffer (20 mM HEPES (pH 7.5), 10 mM MgCl2, […], 0.5 mM EGTA and 2 mM DTT) prepared as test compound. By mixing the JAK1 with substrates and test compounds to start the reaction. There action mixture was incubated for 120 minutes at room temperature, then added 30 μL stop buffer for each sample to terminate the reaction with 50 mM EDTA. After termination of the kinase reaction, the proportion of phosphorylated product was determined as a fraction of total peptide substrate using Caliper EZ Reader II. Inhibition data were calculated by comparison with 100% of the reaction mixture without enzyme inhibition and vehicle-only reaction mixture billion % inhibition compared. The final concentration of reagents in the assays is: ATP, 76.5 μM; JAK1 fluorescent peptide (5-FAM-EEPLYWSFPAKKK-CONH2), 3 μM; JAK1, 10 nM, and DMSO, 1%. Dose response curve were generated to determine the concentration required for IC50 of JAK activity.

Sequence of JAK1 (P23458 whole entry, species assumed): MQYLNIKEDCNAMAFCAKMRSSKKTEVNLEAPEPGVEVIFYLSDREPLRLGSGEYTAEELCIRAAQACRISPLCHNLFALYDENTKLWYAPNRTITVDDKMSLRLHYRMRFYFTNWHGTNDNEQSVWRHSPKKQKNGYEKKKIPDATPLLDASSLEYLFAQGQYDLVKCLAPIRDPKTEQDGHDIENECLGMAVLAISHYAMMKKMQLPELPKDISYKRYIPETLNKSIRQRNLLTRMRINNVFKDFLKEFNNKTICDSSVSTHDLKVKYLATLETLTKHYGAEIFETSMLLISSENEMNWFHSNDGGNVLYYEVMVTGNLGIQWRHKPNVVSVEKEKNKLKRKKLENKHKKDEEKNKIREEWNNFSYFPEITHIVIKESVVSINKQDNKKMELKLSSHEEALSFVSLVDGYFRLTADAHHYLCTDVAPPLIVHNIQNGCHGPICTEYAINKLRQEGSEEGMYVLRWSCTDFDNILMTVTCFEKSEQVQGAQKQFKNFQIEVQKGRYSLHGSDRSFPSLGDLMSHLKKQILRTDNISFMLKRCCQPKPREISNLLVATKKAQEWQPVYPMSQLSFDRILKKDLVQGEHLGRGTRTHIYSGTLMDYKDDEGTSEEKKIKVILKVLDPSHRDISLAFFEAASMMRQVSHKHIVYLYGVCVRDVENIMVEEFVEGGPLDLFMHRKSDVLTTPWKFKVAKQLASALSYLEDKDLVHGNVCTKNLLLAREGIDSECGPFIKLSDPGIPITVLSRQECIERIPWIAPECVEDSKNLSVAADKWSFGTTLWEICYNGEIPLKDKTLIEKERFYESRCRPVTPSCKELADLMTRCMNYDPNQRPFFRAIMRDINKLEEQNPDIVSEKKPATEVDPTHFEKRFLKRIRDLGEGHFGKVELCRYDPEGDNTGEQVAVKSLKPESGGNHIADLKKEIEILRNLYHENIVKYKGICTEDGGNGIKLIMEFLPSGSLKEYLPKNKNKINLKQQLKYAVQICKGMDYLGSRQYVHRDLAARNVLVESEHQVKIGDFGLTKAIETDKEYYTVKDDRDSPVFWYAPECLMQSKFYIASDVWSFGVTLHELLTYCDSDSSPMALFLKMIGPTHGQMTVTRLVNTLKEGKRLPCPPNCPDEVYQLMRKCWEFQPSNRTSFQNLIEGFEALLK

Structure (SMILES)	IC50 [nM]
CN(c1ncnc2[nH]ccc12)C1CCC2(CC1)CCN(C(=O)Nc1nccs1)CC2 [Compound 134, 9-(methyl(7H-pyrrolo[2,3-d]pyrimidin-4-yl)amino)-N-(thiazol-2-yl)-3-azaspiro[5.5]undecane-3-carboxamide]	≤ 10
COc1cccc(NC(=O)N2CCC3(CCC(N(C)c4ncnc5[nH]ccc45)CC3)CC2)n1 [Compound 124, N-(6-methoxpyridin-2-yl)-9-(methyl(7H-pyrrolo[2,3-d]pyrimidin-4-yl)amino)-3-azaspiro[5.5]undecane-3-carboxamide]	10 to 100
CN(c1ncnc2[nH]ccc12)C1CCC2(CC1)CCN(C(=O)Nc1ccc(C#N)cn1)CC2 [Compound 125, N-(5-cyanopyridin-2-yl)-9-(methyl(7H-pyrrolo[2,3-d]pyrimidin-4-yl)amino)-3-azaspiro[5.5]undecane-3-carboxamide]	1000 to 10000
CN(c1ncnc2[nH]ccc12)C1CCC2(CC1)CCN(C(=O)Nc1ncc(C#N)s1)CC2 [Compound 133, N-(5-cyanothiazol-2-yl)-9-(methyl(7H-pyrrolo[2,3-d]pyrimidin-4-yl)amino)-3-azaspiro[5.5]undecane-3-carboxamide]	≤ 10
CN(c1ncnc2[nH]ccc12)C1CCC2(CC1)CCN(C(=O)Nc1ncc(Cl)s1)CC2 [Compound 132, N-(5-chlorothiazol-2-yl)-9-(methyl(7H-pyrrolo[2,3-d]pyrimidin-4-yl)amino)-3-azaspiro[5.5]undecane-3-carboxamide]	100 to 1000
CNC(=O)N1CCC2(CCC(N(C)c3ncnc4[nH]ccc34)CC2)CC1 [Compound 110, N-methyl-9-(methyl(7H-pyrrolo[2,3-d]pyrimidin-4-yl)amino)-3-azaspiro[5.5]undecane-3-carboxamide]	10 to 100
Cc1cnc(NC(=O)N2CCC3(CCC(N(C)c4ncnc5[nH]ccc45)CC3)CC2)cn1 [Compound 128, 9-(methyl(7H-pyrrolo[2,3-d]pyrimidin-4-yl)amino)-N-(5-methylpyrazin-2-yl)-3-azaspiro[5.5]undecane-3-carboxamide]	1000 to 10000
CN(c1ncnc2[nH]ccc12)C1CCC2(CC1)CCN(C(=O)OCC(F)(F)F)CC2 [Compound 108, 2,2,2-trifluoroethyl 9-(methyl(7H-pyrrolo[2,3-d]pyrimidin-4-yl)amino)-3-azaspiro[5.5]undecane-3-carboxylate]	100 to 1000
CN(c1ncnc2[nH]ccc12)C1CCC2(CC1)CCN(C(=O)COc1ccc(C#N)c(F)c1)CC2 [Compound 117, 2-fluoro-4-(2-(9-(methyl(7H-pyrrolo[2,3-d]pyrimidin-4-yl)amino)-3-azaspiro[5.5]undecan-3-yl)-2-oxoethoxy)benzonitrile]	10 to 100
CN(c1ncnc2[nH]ccc12)C1CCC2(CC1)CCN(C(=O)OC(C)(C)C)CC2 [Compound 106, tert-butyl 9-(methyl(7H-pyrrolo[2,3-d]pyrimidin-4-yl)amino)-3-azaspiro[5.5]undecane-3-carboxylate]	1000 to 10000
CN(c1ncnc2[nH]ccc12)C1CCC2(CC1)CCN(C(=O)Nc1ncc(F)s1)CC2 [Compound 131, N-(5-fluorothiazol-2-yl)-9-(methyl(7H-pyrrolo[2,3-d]pyrimidin-4-yl)amino)-3-azaspiro[5.5]undecane-3-carboxamide]	10 to 100
COc1ccc(NC(=O)N2CCC3(CCC(N(C)c4ncnc5[nH]ccc45)CC3)CC2)nc1 [Compound 130, N-(5-methoxypyridin-2-yl)-9-(methyl(7H-pyrrolo[2,3-d]pyrimidin-4-yl)amino)-3-azaspiro[5.5]undecane-3-carboxamide]	10 to 100
CCN(CC)S(=O)(=O)N1CCC2(CCC(N(C)c3ncnc4[nH]ccc34)CC2)CC1 [Compound 111, N,N-diethyl-9-(methyl(7H-pyrrolo[2,3-d]pyrimidin-4-yl)amino)-3-azaspiro[5.5]undecane-3-sulfonamide]	≥ 10000
COc1cnc(NC(=O)N2CCC3(CCC(N(C)c4ncnc5[nH]ccc45)CC3)CC2)cn1 [Compound 129, N-(5-methoxypyrazin-2-yl)-9-(methyl(7H-pyrrolo[2,3-d]pyrimidin-4-yl)amino)-3-azaspiro[5.5]undecane-3-carboxamide]	10 to 100

Continued, values first:

IC50 [nM]	Structure (SMILES)
≤ 10	[2H]C([2H])([2H])N(c1ncnc2[nH]ccc12)C1CC2(C1)CN(C(=O)c1ccc(C#N)c(F)c1F)C2 [Compound 67, 2,3-Difluoro-4-{6-[(methyl-d3)-(7H-pyrrolo[2,3-d]pyrimidin-4-yl)-amino]-2-aza-spiro[3.3]heptane-2-carbonyl}-benzonitrile]
≤ 10	CN(c1ncnc2[nH]ccc12)C1CCC2(CC1)CCN(C(=O)Nc1cccc(C#N)c1)CC2 [Compound 122, N-(3-cyanophenyl)-9-(methyl(7H-pyrrolo[2,3-d]pyrimidin-4-yl)amino)-3-azaspiro[5.5]undecane-3-carboxamide]
≤ 10	CN(c1ncnc2[nH]ccc12)C1CC2(C1)CN(C(=O)c1ccc(S(N)(=O)=O)cc1)C2 [Compound 71, 4-(6-(methyl(7H-pyrrolo[2,3-d]pyrimidin-4-yl)amino)-2-azaspiro[3.3]heptane-2-carbonyl)benzenesulfonamide]
10 to 100	COc1ccc(NC(=O)N2CCC3(CCC(N(C)c4ncnc5[nH]ccc45)CC3)CC2)cc1 [Compound 119, N-(4-methoxyphenyl)-9-(methyl(7H-pyrrolo[2,3-d]pyrimidin-4-yl)amino)-3-azaspiro[5.5]undecane-3-carboxamide]
10 to 100	CN(c1ncnc2[nH]ccc12)C1CC2(C1)CN(C(=O)c1cc(F)c(F)c(C#N)c1)C2 [Compound 62, 2,3-Difluoro-5-{6-[methyl-(7H-pyrrolo[2,3-d]pyrimidin-4-yl)-amino]-2-aza-spiro[3.3]heptane-2-carbonyl}-benzonitrile]
≤ 10	CN(c1ncnc2[nH]ccc12)C1CC2(C1)CN(C(=O)c1cc(C#N)cc(F)c1F)C2 [Compound 63, 3,4-Difluoro-5-{6-[methyl-(7H-pyrrolo[2,3-d]pyrimidin-4-yl)-amino]-2-aza-spiro[3.3]heptane-2-carbonyl}-benzonitrile]
≤ 10	CN(c1ncnc2[nH]ccc12)C1CCC2(CC1)CCN(C(=O)COc1ccccc1)CC2 [Compound 107, 1-(9-(methyl(7H-pyrrolo[2,3-d]pyrimidin-4-yl)amino)-3-azaspiro[5.5]undecan-3-yl)-2-phenoxyethan-1-one]
≤ 10	CN(c1ncnc2[nH]ccc12)C1CC2(C1)CN(C(=O)c1c(F)cc(C#N)cc1F)C2 [Compound 56, 3,5-difluoro-4-(6-(methyl(7H-pyrrolo[2,3-d]pyrimidin-4-yl)amino)-2-azaspiro[3.3]heptane-2-carbonyl)benzonitrile]
10 to 100	CN(c1ncnc2[nH]ccc12)C1CCC2(CC1)CCN(C(=O)Nc1ccc(C#N)cc1)CC2 [Compound 121, N-(4-cyanophenyl)-9-(methyl(7H-pyrrolo[2,3-d]pyrimidin-4-yl)amino)-3-azaspiro[5.5]undecane-3-carboxamide]
10 to 100	CN(c1ncnc2[nH]ccc12)C1CCC2(CC1)CCN(C(=O)COc1cccc(C#N)c1)CC2 [Compound 116, 3-(2-(9-(methyl(7H-pyrrolo[2,3-d]pyrimidin-4-yl)amino)-3-azaspiro[5.5]undecan-3-yl)-2-oxoethoxy)benzonitrile]
10 to 100	[2H]C([2H])([2H])N(c1ncnc2[nH]ccc12)C1CC2(C1)CN(C(=O)c1ccc(C#N)c(F)c1)C2 [Compound 65]
≤ 10	COc1cccc(NC(=O)N2CCC3(CCC(N(C)c4ncnc5[nH]ccc45)CC3)CC2)c1 [Compound 120, N-(3-methoxyphenyl)-9-(methyl(7H-pyrrolo[2,3-d]pyrimidin-4-yl)amino)-3-azaspiro[5.5]undecane-3-carboxamide]
≤ 10	[2H]C([2H])([2H])N(c1ncnc2[nH]ccc12)C1CC2(C1)CN(C(=O)c1ccc(C#CC)c(F)c1)C2 [Compound 66]
≤ 10	[2H]C([2H])([2H])N(c1ncnc2[nH]ccc12)C1CC2(C1)CN(C(=O)c1ccc(C#C)c(F)c1)C2 [Compound 64, (4-Ethynyl-3-fluoro-phenyl)-{6-[(methyl-d3)-(7H-pyrrolo[2,3-d]pyrimidin-4-yl)-amino]-2-aza-spiro[3.3]hept-2-yl}-methanone]
≤ 10	CN(c1ncnc2[nH]ccc12)C1CCC2(CC1)CCN(C(=O)Nc1cccc(C#N)n1)CC2 [Compound 123, N-(6-cyanopyridin-2-yl)-9-(methyl(7H-pyrrolo[2,3-d]pyrimidin-4-yl)amino)-3-azaspiro[5.5]undecane-3-carboxamide]
≤ 10	CN(c1ncnc2[nH]ccc12)C1CC2(C1)CN(C(=O)c1ccc(F)c(C#N)c1)C2 [Compound 57, 2-Fluoro-5-{6-[methyl-(7H-pyrrolo[2,3-d]pyrimidin-4-yl)-amino]-2-aza-spiro[3.3]heptane-2-carbonyl}-benzonitrile]
10 to 100	CN(c1ncnc2[nH]ccc12)C1CC2(C1)CN(C(=O)c1cc(F)c(C#N)cc1F)C2 [Compound 51, 2,5-difluoro-4-(6-(methyl(7H-pyrrolo[2,3-d]pyrimidin-4-yl)amino)-2-azaspiro[3.3]heptane-2-carbonyl)benzonitrile]
10 to 100	CN(c1ncnc2[nH]ccc12)C1CCC2(CC1)CCN(C(=O)c1ccc(S(N)(=O)=O)cc1)CC2 [Compound 112, 4-(9-(methyl(7H-pyrrolo[2,3-d]pyrimidin-4-yl)amino)-3-azaspiro[5.5]undecane-3-carbonyl)benzenesulfonamide]
